Data on 13 compounds can be found in patent US10363251B2, “(+)-morphinans as antagonists of toll-like receptor 9 and therapeutic uses thereof” (Mallinckrodt LLC, priority 2009, dated 2019).

The assay has as its target T1, TLR9 (Homo sapiens, UniProt Q9NR96).
T1 construct: expressed in transfected cells; host or cells: HEK293
T1 sequence (Q9NR96 26-1032): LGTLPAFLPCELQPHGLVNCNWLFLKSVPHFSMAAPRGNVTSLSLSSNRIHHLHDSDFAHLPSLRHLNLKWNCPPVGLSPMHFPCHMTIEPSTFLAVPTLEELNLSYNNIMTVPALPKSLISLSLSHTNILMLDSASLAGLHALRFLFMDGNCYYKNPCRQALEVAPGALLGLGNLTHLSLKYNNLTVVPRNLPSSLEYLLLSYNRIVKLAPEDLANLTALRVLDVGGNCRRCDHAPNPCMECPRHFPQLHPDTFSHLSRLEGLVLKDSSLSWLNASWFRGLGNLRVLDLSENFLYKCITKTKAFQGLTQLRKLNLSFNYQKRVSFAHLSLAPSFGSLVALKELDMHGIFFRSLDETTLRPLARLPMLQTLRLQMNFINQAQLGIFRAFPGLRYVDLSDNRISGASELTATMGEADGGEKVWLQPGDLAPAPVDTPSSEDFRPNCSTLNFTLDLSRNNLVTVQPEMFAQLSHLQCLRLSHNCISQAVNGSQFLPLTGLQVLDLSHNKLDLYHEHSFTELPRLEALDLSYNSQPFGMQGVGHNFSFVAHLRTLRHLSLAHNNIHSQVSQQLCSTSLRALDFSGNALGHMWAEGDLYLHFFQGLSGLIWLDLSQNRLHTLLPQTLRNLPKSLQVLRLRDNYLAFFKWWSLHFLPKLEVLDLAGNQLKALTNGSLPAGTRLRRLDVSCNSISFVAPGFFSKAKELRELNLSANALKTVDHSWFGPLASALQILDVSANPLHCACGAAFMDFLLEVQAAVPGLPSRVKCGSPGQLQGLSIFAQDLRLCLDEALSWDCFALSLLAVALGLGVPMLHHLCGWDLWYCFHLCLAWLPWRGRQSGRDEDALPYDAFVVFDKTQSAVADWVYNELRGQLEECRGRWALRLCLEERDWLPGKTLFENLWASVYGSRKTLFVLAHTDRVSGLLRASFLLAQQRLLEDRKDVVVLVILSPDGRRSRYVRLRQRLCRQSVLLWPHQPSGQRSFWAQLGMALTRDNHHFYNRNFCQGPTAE
As to the kind of experiment: TLR9 screening of (+)-morphinan library, SEAP reporter in HEK293 cells expressing TLR9. The format is cell-based. The settings on record: activator ODN2006; for OD 650 nm (mean ± sd): control (no activator) 0.14, activator 1.42 OD; for inhibition at 0.1 µM: HEK293, read-out: % Inhibition (mean), 100 nM; for inhibition at 10 µM: HEK293, read-out: % Inhibition (mean), 10 μM. In outline: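 HEK293 cells expressing TLR9 with an NF-κB-inducible SEAP reporter were preincubated with compound at 10 μM and 100 nM for 30 min at 37 °C, then stimulated with ODN2006. SEAP was read as OD 650 nm after 16-20 h, in triplicate.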

Regarding `OCCNC1CC[C@]2(O)[C@@H]3Cc4ccc(O)c5c4[C@]2(CCN3CC2CC2)[C@@H]1O5` (stereo partly shown) [II-76], the inhibition at 0.1 µM worked out at 89% and the inhibition at 10 µM worked out at 93%. Under “100 nM”, the “OD 650 nm (mean ± sd)” value worked out at 0.16 ± 0.01 OD. Under “10 μM”, the “OD 650 nm (mean ± sd)” value worked out at 0.10 ± 0.01 OD.

Turning to `C=C1CC[C@]2(O)[C@@H]3Cc4ccc(O)c5c4[C@]2(CCN3CC2CC2)[C@@H]1O5` [II-77], the inhibition at 0.1 µM came out at 13% and the inhibition at 10 µM is 37%. Besides, the “OD 650 nm (mean ± sd)” value (100 nM) was 1.24 ± 0.04 OD. Besides, the “OD 650 nm (mean ± sd)” value (10 μM) is 0.98 ± 0.02 OD.

Turning to `CO[C@]12CCC(=O)[C@H]3Oc4c(O)ccc5c4[C@]31CCN(CC1CC1)[C@H]2C5` [II-79], the inhibition at 0.1 µM worked out at 25% and the inhibition at 10 µM came out at 25%. The “OD 650 nm (mean ± sd)” value (100 nM) stood at 1.07 ± 0.03 OD. The “OD 650 nm (mean ± sd)” value (10 μM) was found to be 1.06 ± 0.11 OD.

As to `Oc1ccc2c3c1O[C@@H]1[C@H](O)CC[C@]4(O)[C@H](C2)N(CC2CCC2)CC[C@@]314` [II-82], the inhibition at 0.1 µM came out at 4% and the inhibition at 10 µM is 65%. In addition, the “OD 650 nm (mean ± sd)” value (100 nM) came out at 1.37 ± 0.02 OD. Also, the “OD 650 nm (mean ± sd)” value (10 μM) was 0.49 ± 0.03 OD.

Take `COc1ccc2c3c1O[C@@H]1C(OC(C)=O)=CC[C@]4(O)[C@H](C2)N(C(C)=O)CC[C@@]314` [II-83]: the inhibition at 0.1 µM stood at 1% and the inhibition at 10 µM is 22%. Besides, the “OD 650 nm (mean ± sd)” value (100 nM) is 1.40 ± 0.13 OD. For the same compound, under “10 μM”, the “OD 650 nm (mean ± sd)” value stood at 1.11 ± 0.09 OD.

`COc1ccc2c3c1O[C@@H]1C(=O)CC[C@]4(O)[C@H](C2)N(C(C)=O)CC[C@@]314` [II-84]: the inhibition at 0.1 µM is -1% and the inhibition at 10 µM was -6%. The “OD 650 nm (mean ± sd)” value (100 nM) was found to be 1.44 ± 0.06 OD. In addition, under “10 μM”, the “OD 650 nm (mean ± sd)” value came out at 1.51 ± 0.08 OD.

Consider `COc1ccc2c3c1O[C@@H]1C(=O)CC[C@@H]4[C@H](C2)N(C(=O)C2CCC2)CC[C@@]314` [II-85], for which the inhibition at 0.1 µM is -2% and the inhibition at 10 µM is -2%. The “OD 650 nm (mean ± sd)” value (100 nM) is given as 1.45 ± 0.04 OD. Also, the “OD 650 nm (mean ± sd)” value (10 μM) is recorded as 1.45 ± 0.04 OD.

For `COC1=CC=C2[C@@H]3Cc4c(Br)cc(OCc5ccccc5)c5c4[C@]2(CCN3CC2CC2)[C@@H]1O5` [II-86], the inhibition at 0.1 µM amounted to 19% and the inhibition at 10 µM is 91%. The “OD 650 nm (mean ± sd)” value (100 nM) is 1.15 ± 0.11 OD. The “OD 650 nm (mean ± sd)” value (10 μM) was 0.13 ± 0.03 OD.

As for `COC1=CCC2[C@@H]3Cc4ccc(OC)c5c4[C@]2(CCN3CC2CC2)[C@@H]1O5` (stereo partly shown) [II-87], the “% Inhibition (mean)” value is, setting by setting: (100 nM, 0.1 µM) 10%; (10 μM) 69%. For the same compound, the “OD 650 nm (mean ± sd)” value reads like this: (100 nM) 1.28 ± 0.06 OD; (10 μM) 0.45 ± 0.01 OD.

As to `O=C1CC[C@@H]2[C@@H]3Cc4ccc(OCc5ccccc5)c5c4[C@]2(CCN3CC2CC2)[C@@H]1O5` [II-88], the inhibition at 0.1 µM turned out to be 21% and the inhibition at 10 µM came out at 91%. Moreover, the “OD 650 nm (mean ± sd)” value (100 nM) is 1.12 ± 0.15 OD. Besides, the “OD 650 nm (mean ± sd)” value (10 μM) was determined as 0.13 ± 0.01 OD.

`C=CCN1CC[C@@]23c4c5ccc(OC)c4O[C@@H]2C2(CC[C@@H]3[C@@H]1C5)OCCO2` [II-89]: the inhibition at 0.1 µM was -8% and the inhibition at 10 µM was found to be 24%. The “OD 650 nm (mean ± sd)” value (100 nM) was 1.53 ± 0.10 OD. Besides, the “OD 650 nm (mean ± sd)” value (10 μM) came out at 1.08 ± 0.02 OD.

As to `[O-][N+]1(CC2CC2)CC[C@@]23c4c5ccc(O)c4O[C@@H]2[C@H](O)CC[C@]3(O)[C@@H]1C5` (stereo partly shown) [II-90], the inhibition at 0.1 µM worked out at 2% and the inhibition at 10 µM is 88%. Moreover, for the setting “100 nM”, the “OD 650 nm (mean ± sd)” value amounted to 1.39 ± 0.03 OD. Besides, the “OD 650 nm (mean ± sd)” value (10 μM) came out at 0.17 ± 0.05 OD.

On to `CCCNC1CCC2C3Cc4ccc(OC)c5c4[C@]2(CCN3C)C1O5` (stereo partly shown) [II-91], for which the inhibition at 0.1 µM amounted to 92% and the inhibition at 10 µM was 93%. The “OD 650 nm (mean ± sd)” value (100 nM) is reported as 0.12 ± 0.01 OD. The “OD 650 nm (mean ± sd)” value (10 μM) turned out to be 0.09 ± 0.01 OD.

The inhibition is the drop in the measured response relative to a control, in per cent.
